Values after ≈ are worked out from the molar mass of the structure shown. Where two headings read alike, the source gives them in different places.
Assays:
HRP = test: Kinetic rate of HRP oxidation of TMB substrate on anti-peroxidase coated microwell plate, A (650 nm); format: biochemical, horseradish; conditions: 0-1 OD at 650 nm, 0-15 minutes
Description: A TMB solution was prepared having the following concentration of reagents: 3 mM TMB (Sigma, Cat #T-2885), 0.5% dimethylsulfoxide (DMSO; […] Various chemicals, used at 0.5M in the TMB solution, were compared against the betaine reagent in non-encapsulation solubilization methods. Glycine (Sigma, Cat #G8898), sarcosine (Sigma, Cat #131776), choline chloride (Sigma, Cat #C1909), L-carnitine (Sigma, Cat #C0158), 3-(1-pyridinio)-1-propanesulfonate (Sigma, Cat #82804), or the betaine N,N,N-trimethylglycine (Sigma, Cat #B2629) were all added to separate scintillation vials of TMB solution. A Nunc Maxisorb 96 microwell plate (Cat #439454) was coated with 100 μL of an 850 ng/mL solution of Rabbit Anti-Peroxidase (Accurate Chemical and Scientific Corporation, Cat #ACZ001021). The plate was then coated with 150 μL of StabilCoat (SurModics, Cat #SC01) for one hour. This was then aspirated and the plate was allowed to dry overnight in a desiccation chamber. Plates were then incubated with 100 μL of 3.125 ng/mL solution of HRP in Stabilzyme HRP Conjugate stabilizer (SurModics, SZ02) for one hour, washed three times, and 100 uL of TMB substrate was added to each well. […] To each TMB solution was added 1 mM hydroxy propyl beta-cyclodextrin (Wacker, 60082620), 3 mm hydroxy propyl beta-cyclodextrin (Wacker, 60082620), or 0.5M of the betaine N,N,N-trimethylglycine (Sigma, Cat #B2629). A Nunc Maxisorb 96 microwell plate (Cat #439454) was coated with 100 μL of an 850 ng/mL solution of Rabbit Anti-Peroxidase (Accurate Chemical and Scientific Corporation, Cat #ACZ001021). The plate was then coated with 150 μL of StabilCoat (SurModics, Cat #SC01) for one hour. This was then aspirated and the plate was allowed to dry overnight in a desiccation chamber. Plates were then incubated with 100 μL of 3.125 ng/mL solution of HRP in Stabilzyme HRP Conjugate stabilizer (SurModics, SZ02) for one hour, washed three times, and 100 uL of TMB substrate was added to each well.

[1] = Dye content of TMB solution, A (285 nm): amount of unrestricted benzidine rings in solution; format: physicochemical
Description: A TMB solution was prepared having the following concentration of reagents: 3 mM TMB (Sigma, Cat #T-2885), 0.5% dimethylsulfoxide (DMSO; […] Various chemicals, used at 0.5M in the TMB solution, were compared against the betaine reagent in non-encapsulation solubilization methods. Glycine (Sigma, Cat #G8898), sarcosine (Sigma, Cat #131776), choline chloride (Sigma, Cat #C1909), L-carnitine (Sigma, Cat #C0158), 3-(1-pyridinio)-1-propanesulfonate (Sigma, Cat #82804), or the betaine N,N,N-trimethylglycine (Sigma, Cat #B2629) were all added to separate scintillation vials of TMB solution. Each TMB substrate and TMBW (available from SurModics, Inc) in an amount of 20 μL were added to individual aliquots of 980 μL of distilled water. […] Each TMB solution in an amount of 20 μL was added to individual aliquots of 980 μL of distilled water. […] To each TMB solution was added 1 mM hydroxy propyl beta-cyclodextrin (Wacker, 60082620), 3 mm hydroxy propyl beta-cyclodextrin (Wacker, 60082620), or 0.5M of the betaine N,N,N-trimethylglycine (Sigma, Cat #B2629). Each TMB substrate and TMBW (available from SurModics, Inc) in an amount of 20 μL of were added to individual aliquots of 980 μL of distilled water.

[2] = cited from earlier work
[3] = Example 1: additive at 0.5M in TMB solution (3 mM TMB, 1.25 mM hydroxypropyl beta-cyclodextrin, pH 3.5), TMBW as supplied
[4] = Example 1: additive at 0.5M in TMB solution (3 mM TMB, 0.5% DMSO, 1.25 mM hydroxypropyl beta-cyclodextrin, 0.01% H2O2, pH 3.5), TMBW as supplied, 20 μL in 980 μL water

## C[N+](C)(C)C[C@H](O)CC(=O)[O-] (racemic) [DL-Carnitine, L-carnitine]
HRP; [3]
  Kinetics (mAu/min): 18.432 mAu/min
[1]; [4]
  Dye (A285): 0.254

## Cc1cc(-c2ccc(N)c(C)c2)ccc1N [2-tolidine]
[2]
  solubility in water: 1.3 g/L (≈ 6.12 mM)

## O=S(=O)([O-])CCC[n+]1ccccc1 [3-(1-Pyridinio)-1-propanesulfonate, 3-(1-pyridinio)-1-propanesulfonate]
HRP; [3]
  Kinetics (mAu/min): 49.732 mAu/min
[1]; [4]
  Dye (A285): 1.175

## Nc1ccc(-c2ccc(N)cc2)cc1 [Benzidine, biphenyl-4,4′-diamine]
[2]; at 100° C., in the absence of the N,N,N-trimethylglycine solubilization reagent
  solubility in water: 0.94 g/100 mL

## C[N+](C)(C)CC(=O)O [Betaine (N,N,N-trimethylglycine), N,N,N-trimethylglycine]
HRP; [3]
  Kinetics (mAu/min): 71.917 mAu/min
HRP; Example 3: 0.5M additive in 3 mM TMB solution, pH 3.5
  Kinetics (mAu/min): 71.739 mAu/min
[1]; [4]
  Dye (A285): 0.974
[1]; Example 2: 0.25M N,N,N-trimethylglycine, 3 mM TMB, 0.5% DMSO, pH 3.5
  Dye (A285): 0.35
[1]; Example 2: 0.5M N,N,N-trimethylglycine, 3 mM TMB, 0.5% DMSO, pH 3.5
  Dye (A285): 0.535
[1]; Example 2: 1M N,N,N-trimethylglycine, 3 mM TMB, 0.5% DMSO, pH 3.5
  Dye (A285): 0.85
[1]; Example 3: 0.5M additive in 3 mM TMB, 0.5% DMSO, 0.01% H2O2, pH 3.5
  Dye (A285): 1.061
[2]; at 25° C.
  solubility in water: up to 64 g/100 mL
  solubility in water (molar): ~5500 mM

## C[N+](C)(C)CCO.[Cl-] [Choline Chloride, choline chloride]
HRP; [3]
  Kinetics (mAu/min): 2.855 mAu/min
[1]; [4]
  Dye (A285): 1.074

## NCC(=O)O [Glycine]
HRP; [3]
  Kinetics (mAu/min): 41.16 mAu/min
[1]; [4]
  Dye (A285): 0.358

## CNCC(=O)O [Sarcosine, sarcosine]
HRP; [3]
  Kinetics (mAu/min): 45.014 mAu/min
[1]; [4]
  Dye (A285): 0.45

## hydroxy propyl beta-cyclodextrin [Beta Cyclodextrin]
HRP; Example 3: 1 mM additive in 3 mM TMB solution, pH 3.5
  Kinetics (mAu/min): 39.697 mAu/min
HRP; Example 3: 3 mM additive in 3 mM TMB solution, pH 3.5
  Kinetics (mAu/min): 49.775 mAu/min
[1]; Example 3: 1 mM additive in 3 mM TMB, 0.5% DMSO, 0.01% H2O2, pH 3.5
  Dye (A285): 0.339
[1]; Example 3: 3 mM additive in 3 mM TMB, 0.5% DMSO, 0.01% H2O2, pH 3.5
  Dye (A285): 0.78

From patent US9588123B2, “Compositions and methods for in vitro diagnostic tests including zwitterionic solubilization reagent” (SurModics IVD, Inc., priority 2014, dated 2017)
